According to EP3907227A1, “TRILOBINE DERIVATIVES AND THEIR USE THEREOF IN THE TREATMENT OF MALARIA” (Institut Pasteur, priority 2020, dated 2021):
Where two headings read alike, the source gives them in different places.

Legend:
Strain 5150 = experiment: Inhibition of proliferation of multi-resistant field isolates, asynchronous asexual stages, SYBR-green assay; type: cell-based, P. falciparum; details: Plasmodium falciparum, read-out: IC50 nM Strain 5150 mean*
Description: (§1) Compounds 63 and 84 were evaluated regarding the inhibition of the proliferation of multi-resistant field isolates adapted to culture. A panel of four Cambodian strains bearing different molecular markers of resistance were selected: 3D7: Laboratory strain, drug-sensitive, 5150: Cambodian isolate resistant to Chloroquine and Pyrimethamine, 6591: Cambodian isolate resistant to Chloroquine, Pyrimethamine, 5248: Cambodian isolate resistant to Chloroquine, Pyrimethamine, Mefloquine and Artemisinin, 6320: Cambodian isolate resistant to Chloroquine, Pyrimethamine, Piperaquine and Artemisinin.
(§2) IC50 were obtained against asynchronous asexual stages using SYBR-green assay after 72h of incubation with a serial dilution of the compounds. Data represents the mean and SD of 3 independent experiments ran in triplicates. Table 2 illustrates mean IC50 values and their standard deviation in nanomolar.

Strain 5248 = experiment: as above; type: cell-based, P. falciparum; details: Plasmodium falciparum, read-out: IC50 nM Strain 5248 mean*
Description: as §1, §2

Strain 6320 = experiment: as above; type: cell-based, P. falciparum; details: Plasmodium falciparum, read-out: IC50 nM Strain 6320 mean*
Description: as §1, §2

Strain 6591 = experiment: as above; type: cell-based, P. falciparum; details: Plasmodium falciparum, read-out: IC50 nM Strain 6591 mean*
Description: as §1, §2

Lab. Strain 3D7 = experiment: Inhibition of proliferation, asynchronous asexual stages, SYBR-green assay, laboratory strain; type: cell-based, P. falciparum; details: Plasmodium falciparum, read-out: IC50 nM Lab. Strain 3D7 mean*
Description: as §1, §2

[1] = tested on: P. falciparum NF54 (drug-sensitive line); experiment: Inhibition of proliferation of asynchronous asexual cultures (SYBR Green I based assay, 72h); type: cell-based; details: for activity at 5 µM: first screen at 5µM in duplicate, 72h, NF54, read-out: % survival @5uM
Description: Compounds were provided at a concentration of 10 mM in DMSO.
P. falciparum parasite are cultured using standard protocol (Trager and Jensen, Science 1976, 193(4254), 673-675). Briefly, parasites are cultured at 4% hematocrit (O+ human blood, Etablissement Français du Sang, France) in RPMI1640 complemented with 0.1% Albumax I, HEPES buffer, hypoxanthine, and gentamycin. They are incubated at 37°C under an atmosphere of 5% CO2 and 5% O2.
Compounds of the invention were assayed for a first screen at 5µM in duplicate against asynchronous asexual cultures of P. falciparum NF54 (drug-sensitive line) containing mostly rings (2% hematocrit. 0.5% starting parasitemia). Plates were incubated for 72h at 37°C under a reduced oxygen atmosphere. Parasite growth was assessed using the SYBR Green I based assay.
IC50 were determined using Graphpad Prism 6 software. Dihydroartemisinin (starting concentration 50nM) and DMSO were used as positive and negative controls.

Parasites = experiment: Parasite reduction rate (time needed to kill the parasites); type: cell-based; details: survival curves, duration of treatment versus log viable parasites, Figure 3
Description: Parasites are incubated (see for example Sanz et al. PLoS ONE 7, e30949 (2012)) with a compound of the invention (or a reference) for different time-windows, washed, and diluted serially in 96-well plates in fresh red blood cells. Parasites are kept in culture for 3 to 4 weeks, when growth is assessed to evaluate the number of parasites that survive-correlated to the number of wells where growth is found. Survival curves are obtained by plotting the duration of treatment versus the log of the number of viable parasites (figure 3).

[2] = Plasmodium falciparum, NF54, 72 h, SYBR Green I, read-out: Malaria CI50
[3] = Plasmodium falciparum, NF54, 72h, SYBR Green I, read-out: Malaria CI50

Structure (SMILES) | IC50 [1, 2] [nM] | activity at 5 µM ([1]; Plasmodium falciparum) [%] | other results
CCN(CC)CCCC(C)Nc1ccnc2cc(Cl)ccc12 (stereo not drawn) [Chloroquine] |  |  | IC50 (Strain 5150; 72 h): 55 nM; IC50 (Strain 5248; 72 h): 98 nM; IC50 (Strain 6320; 72 h): 109 nM; IC50 (Strain 6591; 72 h): 64 nM; IC50 (Lab. Strain 3D7; 3D7, 72 h): 13 nM
COc1ccc2cc1Oc1ccc(cc1)CC1c3c(cc(OC)c4c3Oc3cc5c(cc3O4)CCN(C(=O)Nc3ccncc3)C5C2)CCN1C (stereo not drawn) [Compound 23] | 223 ± 58 | 13.4 | 
COc1ccc2cc1Oc1ccc(cc1)CC1c3c(cc(OC)c4c3Oc3cc5c(cc3O4)CCN(C(=O)Nc3cccnc3)C5C2)CCN1C (stereo not drawn) [Compound 27] | 383 ± 173 | 12.7 | 
COc1ccc2cc1Oc1ccc(cc1)CC1c3c(cc(OC)c4c3Oc3cc5c(cc3O4)CCN(C)C5C2)CCN1C(=O)NCc1ccccc1 (stereo not drawn) [Compound 28] | 504 ± 134 | 14.4 | 
COc1ccc2cc1Oc1ccc(cc1)CC1c3c(cc(OC)c4c3Oc3cc5c(cc3O4)CCN(C(=O)NCc3ccncc3)C5C2)CCN1C (stereo not drawn) [Compound 31] | 151 ± 21 | 14.8 | 
COc1ccc2cc1Oc1ccc(cc1)CC1c3c(cc(OC)c4c3Oc3cc5c(cc3O4)CCN(C)C5C2)CCN1CCOCCOCCO (stereo not drawn) [Compound 42] | 437 ± 83 | 12.9 | 
COc1ccc2cc1Oc1ccc(cc1)CC1c3c(cc(OC)c4c3Oc3cc5c(cc3O4)CCN(CCOCCOCCO)C5C2)CCN1C (stereo not drawn) [Compound 43] | 438 ± 95 | 13.3 | 
COc1ccc2cc1Oc1ccc(cc1)CC1c3c(cc(OC)c4c3Oc3cc5c(cc3O4)CCN(C)C5C2)CCN1CCCN(C)C (stereo not drawn) [Compound 46] | 169 ± 10 | 14.2 | 
COc1ccc2cc1Oc1ccc(cc1)CC1c3c(cc(OC)c4c3Oc3cc5c(cc3O4)CCN(C)C5C2)CCN1CC(O)CO (stereo not drawn) [Compound 48] | 195 ± 55 | 11.8 | 
COc1ccc2cc1Oc1ccc(cc1)CC1c3c(cc(OC)c4c3Oc3cc5c(cc3O4)CCN(C(=O)NCCN3CCN(C)CC3)C5C2)CCN1C (stereo not drawn) [Compound 60] | 227 ± 59 | 15.4 | 
COc1cc2c3c4c1Oc1cc5c(cc1O4)C(Cc1ccc(OCCCN4CCN(C)CC4)c(c1)Oc1ccc(cc1)CC3N(C)CC2)N(C)CC5 (stereo not drawn) [Compound 68] | 189 | 14.8 | 
COc1cc2c3c4c1Oc1cc5c(cc1O4)C(Cc1ccc(OCC4CO4)c(c1)Oc1ccc(cc1)CC3N(C)CC2)N(C)CC5 (stereo not drawn) [Compound 73] | 299 ± 25 | 15.8 | 
COc1cc2c3c4c1Oc1cc5c(cc1O4)C(Cc1ccc(OC4CCCN(C)CC4)c(c1)Oc1ccc(cc1)CC3N(C)CC2)N(C)CC5 (stereo not drawn) [Compound 74] | 297 ± 42 | 14.7 | 
COc1cc2c3c4c1Oc1cc5c(cc1O4)C(Cc1ccc(OCCC4CCCN4C)c(c1)Oc1ccc(cc1)CC3N(C)CC2)N(C)CC5 (stereo not drawn) [Compound 75] | 352 ± 54 | 14.9 | 
CCN(CC)CCOc1ccc2cc1Oc1ccc(cc1)CC1c3c(cc(OC)c4c3Oc3cc5c(cc3O4)CCN(C)C5C2)CCN1C (stereo not drawn) [Compound 78] | 331 ± 29 | 12.6 | 
COc1cc2c3c4c1Oc1cc5c(cc1O4)C(Cc1ccc(OCCN(C)C)c(c1)Oc1ccc(cc1)CC3N(C)CC2)N(C)CC5 (stereo not drawn) [Compound 82] | 260 ± 34 | 13.4 | 
CCN(CC)CCCNC(=O)N1CCc2cc3c4cc2C1Cc1ccc(OC)c(c1)Oc1ccc(cc1)CC1c2c(cc(OC)c(c2O4)O3)CCN1C(=O)NCCCN(CC)CC (stereo not drawn) [Compound 87] | 441 ± 67 | 11.3 | 
CCN(CC)CCCNC(=O)N1CCc2cc3c4cc2C1Cc1ccc(OC)c(c1)Oc1ccc(cc1)CC1c2c(cc(OC)c(c2O4)O3)CCN1C (stereo not drawn) [Compound 88] | 297 ± 31 | 14.7 | 
CCN(CC)CCCNC(=O)N1CCc2cc(OC)c3c4c2C1Cc1ccc(cc1)Oc1cc(ccc1OC)CC1c2cc(c(cc2CCN1C)O3)O4 (stereo not drawn) [Compound 89] | 428 ± 77 | 14.4 | 
CN1CCc2cc3c4cc2C1Cc1ccc(O)c(c1)Oc1ccc(cc1)CC1c2c(cc(O)c(c2O4)O3)CCN1C (stereo not drawn) [Compound 110] |  |  | IC50 [1, 3]: 146 ± 39 nM
CN(C)CCCOc1ccc2cc1Oc1ccc(cc1)CC1c3c(cc(O)c4c3Oc3cc5c(cc3O4)CCN(C)C5C2)CCN1C (stereo not drawn) [Compound 113] | 153 ± 58 |  | 
COc1cc2c3c4c1Oc1cc5c(cc1O4)C(Cc1ccc(OCCCN(C)C)c(c1)Oc1ccc(cc1)CC3NCC2)N(C)CC5 (stereo not drawn) [Compound 116] | 263 ± 50 |  | 
Oc1ccc2cc1Oc1ccc(cc1)CC1NCCc3cc(O)c4c(c31)Oc1cc3c(cc1O4)CCNC3C2 (stereo not drawn) [Compound 121] |  |  | IC50 [1, 3]: 115 ± 55 nM; Speed of action (parasite reduction rate) (Parasites): act as fast as dihydroartemisinin (DHA)
CN1CCc2cc3c4cc2C1Cc1ccc(O)c(c1)Oc1ccc(cc1)CC1NCCc2cc(O)c(c(c21)O4)O3 (stereo not drawn) [Compound 122] |  |  | IC50 [1, 3]: 248 ± 58 nM
CN(C)Cc1cc2cc(c1O)Oc1ccc(cc1)CC1c3c(c(CN(C)C)c(O)c4c3Oc3cc5c(cc3O4)CCN(C)C5C2)CCN1C (stereo not drawn) [Compound 123] | 283 ± 155 |  | 
COc1ccc2cc1Oc1ccc(cc1)C[C@H]1c3c(cc(OC)c4c3Oc3cc5c(cc3O4)CCN(C)[C@H]5C2)CCN1C [Isotrilobine, reference compound] |  |  | IC50 ([1]; Plasmodium falciparum, NF54, 72 h, same conditions as Table 1 (NF54, 72h), read-out: mean IC50 +/- SD): 1780 nM
COc1ccc2cc1Oc1ccc(cc1)C[C@@H]1NCCc3cc(OC)c4c(c31)Oc1cc3c(cc1O4)CCN[C@H]3C2 [Nortrilobine, reference compound] |  |  | IC50 ([1]; same conditions as Table 1 (NF54, 72h), read-out: mean IC50 +/- SD): 1220 ± 130 nM
Clc1ccc2c(N3CCN(CCCN4CCN(c5ccnc6cc(Cl)ccc56)CC4)CC3)ccnc2c1 [Piperaquine] |  |  | IC50 (Strain 5150; 72 h): 26 nM; IC50 (Strain 5248; 72 h): 33 nM; IC50 (Strain 6320; 72 h): > 200 nM; IC50 (Strain 6591; 72 h): 34 nM; IC50 (Lab. Strain 3D7; 3D7, 72 h): 41 nM
CCc1nc(N)nc(N)c1-c1ccc(Cl)cc1 [Pyrimethamine] |  |  | IC50 (Strain 5150; 72h, Cambodian isolate resistant to Chloroquine and Pyrimethamine, mean of three replicates): > 5000 nM; IC50 (Strain 5248; 72h, Cambodian isolate resistant to Chloroquine, Pyrimethamine, Mefloquine and Artemisinin, mean of three replicates): > 5000 nM; IC50 (Strain 6320; 72h, Cambodian isolate resistant to Chloroquine, Pyrimethamine, Piperaquine and Artemisinin, mean of three replicates): > 5000 nM; IC50 (Strain 6591; 72h, Cambodian isolate resistant to Chloroquine, Pyrimethamine, mean of three replicates): > 5000 nM; IC50 (Lab. Strain 3D7; 3D7, 72h, laboratory strain, drug-sensitive, mean of three replicates): 30 nM
